Source: ChEMBL document CHEMBL3108686, “Cytotoxic dammarane-type triterpenoids from the stem bark of Dysoxylum binecteriferum” (J Nat Prod, 2014)

Experiments:
RAW264.7 = assay: Antiinflammatory activity in mouse RAW264.7 cells assessed as inhibition of LPS-stimulated nitric oxide production after 24 hrs by Griess assay; type: functional, cell-based; conditions: RAW264.7, 24 h
HepG2 = assay: Cytotoxicity against human HepG2 cells assessed as cell viability after 48 hrs by MTT assay; type: functional, cell-based; conditions: HepG2, 48 h
MCF7 = assay: Cytotoxicity against human MCF7 cells assessed as cell viability after 48 hrs by MTT assay; type: functional, cell-based; conditions: MCF7, 48 h
A549 = assay: cells; conditions: Homo sapiens, A549, 48 h
Description: Cytotoxicity against human A549 cells assessed as cell viability after 48 hrs by MTT assay

For `C=C(C)[C@@H]1CC[C@]2(C)[C@H](CC[C@@H]3[C@@H]([C@]4(C)CC[C@@H](C(C)(C)O)O4)CC[C@]32C)[C@@]1(C)CCC(=O)OC`, the IC50 (RAW264.7) was > 100 µM, the IC50 (HepG2) was > 50 µM and the IC50 (MCF7) was > 50 µM. For the same molecule, the IC50 (A549) was > 50 µM.
With `CCOC(=O)CC[C@@]1(C)[C@H]([C@@](C)(O)CO)CC[C@]2(C)[C@@H]1CC[C@@H]1[C@@H]([C@]3(C)CC[C@@H](C(C)(C)O)O3)CC[C@]12C` the IC50 (RAW264.7) was > 100 µM, the IC50 (HepG2) was > 50 µM and the IC50 (MCF7) was > 50 µM. The IC50 (A549) was > 50 µM.
`CCOC(=O)CC[C@@]1(C)[C@H]([C@@](C)(O)CO)CC[C@]2(C)[C@@H]1CC[C@@H]1[C@@H]([C@]3(C)CC[C@H](C(C)(C)O)O3)CC[C@]12C` was tested, and the IC50 (RAW264.7) was 57.7 µM, the IC50 (HepG2) was > 50 µM and the IC50 (MCF7) was > 50 µM. For the same molecule, the IC50 (A549) was > 50 µM.
With `CC(C)(O)[C@@H]1CC[C@@](C)([C@H]2CC[C@]3(C)[C@@H]2CC[C@@H]2[C@@]4(C)CCC(=O)C(C)(C)[C@@H]4C[C@H](O)[C@]23C)O1` the IC50 (RAW264.7) was > 100 µM, the IC50 (HepG2) was > 50 µM and the IC50 (MCF7) was > 50 µM. The IC50 (A549) was > 50 µM.
In the case of `CC(C)(O)[C@H]1CC[C@@](C)([C@H]2CC[C@]3(C)[C@@H]2CC[C@@H]2[C@@]4(C)CC[C@@H](O)C(C)(C)[C@@H]4CC[C@]23C)O1`, the IC50 (RAW264.7) is reported as > 100 µM, the IC50 (HepG2) is reported as > 50 µM and the IC50 (MCF7) is reported as > 50 µM. For the same molecule, the IC50 (A549) was > 50 µM.
With `CC(C)(O)[C@@H]1CC[C@@](C)([C@H]2CC[C@]3(C)[C@@H]2CC[C@@H]2[C@@]4(C)CC[C@@H](O)C(C)(C)[C@@H]4CC[C@]23C)O1` the IC50 (RAW264.7) was > 100 µM, the IC50 (HepG2) was > 50 µM and the IC50 (MCF7) was > 50 µM. The IC50 (A549) was > 50 µM.
With `C=C(C)[C@@H]1CC[C@]2(C)[C@H](CC[C@@H]3[C@@H]([C@]4(C)CCC(=O)O4)CC[C@]32C)[C@@]1(C)CCC(=O)OCC` the IC50 (RAW264.7) was > 100 µM, the IC50 (HepG2) was 38.4 µM and the IC50 (MCF7) was > 50 µM. For the same molecule, the IC50 (A549) was > 50 µM.
In the case of `CCOC(=O)CC[C@@]1(C)[C@H]([C@](C)(O)CO)CC[C@]2(C)[C@@H]1CC[C@@H]1[C@@H]([C@]3(C)CC[C@H](C(C)(C)O)O3)CC[C@]12C`, the IC50 (RAW264.7) is reported as > 100 µM, the IC50 (HepG2) is reported as > 50 µM and the IC50 (MCF7) is reported as > 50 µM. For the same molecule, the IC50 (A549) was > 50 µM.
With `C=C(C)[C@@H]1CC[C@]2(C)[C@H](CC[C@@H]3[C@@H]([C@]4(C)CCC(=O)O4)CC[C@]32C)[C@@]1(C)CCC(=O)OC` the IC50 (RAW264.7) was 31.8 µM, the IC50 (HepG2) was > 50 µM and the IC50 (MCF7) was > 50 µM. For the same molecule, the IC50 (A549) was > 50 µM.
With `C=C(C)[C@@H]1CC[C@]2(C)[C@H](CC[C@@H]3[C@@H]([C@]4(C)CC[C@H](C(C)(C)O)O4)CC[C@]32C)[C@@]1(C)CCC(=O)OCC` the IC50 (RAW264.7) was > 100 µM, the IC50 (HepG2) was 14.9 µM and the IC50 (MCF7) was 18.4 µM. The IC50 (A549) was 12.9 µM.
With `CC1(C)C(=O)CC[C@]2(C)[C@H]3CC[C@@H]4[C@@H]([C@]5(C)CCC(=O)O5)CC[C@@]4(C)[C@]3(C)CC[C@@H]12` [CABRALELACTONE] the IC50 (RAW264.7) was > 100 µM, the IC50 (HepG2) was > 50 µM and the IC50 (MCF7) was > 50 µM. The IC50 (A549) was > 50 µM.
In the case of `C=C(C)[C@@H]1CC[C@]2(C)[C@H](CC[C@@H]3[C@@H]([C@]4(C)CC[C@H](O)C(C)(C)O4)CC[C@]32C)[C@@]1(C)CCC(=O)OC`, the IC50 (RAW264.7) is reported as > 100 µM, the IC50 (HepG2) is reported as > 50 µM and the IC50 (MCF7) is reported as > 50 µM. For the same molecule, the IC50 (A549) was > 50 µM.
With `C=C(CC[C@H](O)C(C)(C)O)[C@H]1CC[C@]2(C)[C@@H]1CC[C@@H]1[C@@]3(C)CC[C@@H](O)C(C)(C)[C@@H]3CC[C@]12C` the IC50 (RAW264.7) was > 100 µM, the IC50 (HepG2) was 5.9 µM and the IC50 (MCF7) was 16.7 µM. The IC50 (A549) was 35 µM.
In the case of `CC(C)(O)[C@H]1CC[C@@](C)([C@H]2CC[C@]3(C)[C@@H]2CC[C@@H]2[C@@]4(C)CCC(=O)[C@@](C)(CO)[C@@H]4CC[C@]23C)O1`, the IC50 (RAW264.7) is reported as > 100 µM, the IC50 (HepG2) is reported as > 50 µM and the IC50 (MCF7) is reported as > 50 µM. For the same molecule, the IC50 (A549) was > 50 µM.
`CC1(C)C(=O)CC[C@]2(C)[C@H]3CC[C@@H]4[C@@H]([C@]5(C)C[C@H](O)C(=O)O5)CC[C@@]4(C)[C@]3(C)CC[C@@H]12` was tested, and the IC50 (RAW264.7) was > 100 µM, the IC50 (HepG2) was 8 µM and the IC50 (MCF7) was 26.7 µM. It also gave an IC50 (A549) of 12.4 µM.
`C=C(C)[C@@H]1CC[C@]2(C)[C@H](CC[C@@H]3[C@@H]([C@]4(C)CC[C@H](C(C)(C)O)O4)CC[C@]32C)[C@@]1(C)CCC(=O)OC` [METHYL SHOREATE] was tested, and the IC50 (RAW264.7) was > 100 µM, the IC50 (HepG2) was 6.3 µM and the IC50 (MCF7) was 5.6 µM. For the same molecule, the IC50 (A549) was 12.9 µM.
For `CC(C)(O)[C@@H]1CC[C@@](C)([C@H]2CC[C@]3(C)[C@@H]2CC[C@@H]2[C@@]4(C)CCC(=O)[C@](C)(CO)[C@@H]4CC[C@]23C)O1`, the IC50 (RAW264.7) was > 100 µM, the IC50 (HepG2) was > 50 µM and the IC50 (MCF7) was > 50 µM. For the same molecule, the IC50 (A549) was > 50 µM.
For `C=C(CO)[C@@H]1CC[C@]2(C)[C@H](CC[C@@H]3[C@@H]([C@]4(C)CC[C@@H](C(C)(C)O)O4)CC[C@]32C)[C@@]1(C)CCC(=O)OC`, the IC50 (RAW264.7) was > 100 µM, the IC50 (HepG2) was 28 µM and the IC50 (MCF7) was > 50 µM. For the same molecule, the IC50 (A549) was > 50 µM.
With `CC1(C)[C@H](O)CC[C@]2(C)[C@H]3CC[C@@H]4[C@@H]([C@]5(C)C=CC(=O)O5)CC[C@@]4(C)[C@]3(C)CC[C@@H]12` the IC50 (RAW264.7) was > 100 µM, the IC50 (HepG2) was > 50 µM and the IC50 (MCF7) was > 50 µM. For the same molecule, the IC50 (A549) was > 50 µM.
For `C=C(C)[C@@H]1CC[C@]2(C)[C@H](CC[C@@H]3[C@@H]([C@]4(C)CCC(=O)O4)CC[C@]32C)[C@@]1(C)CCC(=O)O`, the IC50 (RAW264.7) was > 100 µM, the IC50 (HepG2) was > 50 µM and the IC50 (MCF7) was > 50 µM. For the same molecule, the IC50 (A549) was > 50 µM.
`CC1(C)[C@H](O)CC[C@]2(C)[C@H]3CC[C@@H]4[C@@H]([C@]5(C)CCC(=O)O5)CC[C@@]4(C)[C@]3(C)CC[C@@H]12` [CABRALEAHYDROXYLACTONE] was tested, and the IC50 (RAW264.7) was > 100 µM, the IC50 (HepG2) was > 50 µM and the IC50 (MCF7) was > 50 µM. For the same molecule, the IC50 (A549) was > 50 µM.
With `CC(C)(O)[C@@H]1CC[C@@](C)([C@H]2CC[C@]3(C)[C@@H]2CC[C@@H]2[C@@]4(C)CC[C@@H](O)[C@@](C)(CO)[C@@H]4CC[C@]23C)O1` the IC50 (RAW264.7) was 64.9 µM, the IC50 (HepG2) was 20.2 µM and the IC50 (MCF7) was 30.4 µM. The IC50 (A549) was > 50 µM.
With `CC(C)(O)[C@H]1CC[C@@](C)([C@H]2CC[C@]3(C)[C@@H]2CC[C@@H]2[C@@]4(C)CC[C@@H](O)[C@@](C)(CO)[C@@H]4CC[C@]23C)O1` the IC50 (RAW264.7) was > 100 µM, the IC50 (HepG2) was > 50 µM and the IC50 (MCF7) was 23 µM. The IC50 (A549) was > 50 µM.
For `CC(C)(O)[C@@H]1CC[C@@](C)([C@H]2CC[C@]3(C)[C@@H]2CC[C@@H]2[C@@]4(C)CCC(=O)[C@@](C)(CO)[C@@H]4CC[C@]23C)O1`, the IC50 (RAW264.7) was > 100 µM, the IC50 (HepG2) was 6.5 µM and the IC50 (MCF7) was 18.3 µM. The IC50 (A549) was 28.2 µM.
For `CCOC(=O)CC[C@@]1(C)[C@H]([C@](C)(O)CO)CC[C@]2(C)[C@@H]1CC[C@@H]1[C@@H]([C@]3(C)CC[C@@H](C(C)(C)O)O3)CC[C@]12C`, the IC50 (RAW264.7) was > 100 µM, the IC50 (HepG2) was > 50 µM and the IC50 (MCF7) was > 50 µM. For the same molecule, the IC50 (A549) was > 50 µM.
